From US9200252B2, “Compositions for inducing differentiation into retinal cells from retinal progenitor cells or inducing proliferation of retinal cells comprising Wnt signaling pathway activators” (SNU R&DB Foundation, priority 2009, dated 2015) come the findings set out here.

This assay has as its system hESC-derived retinal progenitor cells. As to the kind of experiment: Differentiation of hESC-derived retinal progenitor cells into photoreceptor cells with substitutes for Wnt3a or Shh; positive rates of retinal cell markers by immunochemical staining. In kind it is cell-based, human. Particulars: Mean ± S.E.M., sample size 3. As to the method: The eye field precursors (floating aggregates) were cultured in 8-well poly-D-lysine/laminin-coated slides (BD Biosciences, Bedford, Mass.) under the same conditions that were used for differentiation into the retinal progenitor cells, the neural retinal progenitor cells, the photoreceptor cell precursors and the photoreceptor cells.
After being blocked for 90 min, the slides in each differentiation step were incubated overnight at 4° C. with the following antibodies specific for cells of each differentiation step: rabbit-Blue-opsin (1:500, Chemicon), sheep-Chx10 (1:100, Chemicon), rabbit-Crx (1:200, Santa Cruz Biotechnology, Santa Cruz, Calif., USA), rabbit-GFAP (1:200, Invitrogen), mouse-human specific mitochondria (1:50, Chemicon), rabbit-human specific mitochondria (1:200, Chemicon), mouse-Islet1 (1:10, Developmental Studies Hydroma Bank, DSHB; Iowa City, Iowa, USA), mouse-Ki67 (1:100, Vector Laboratories, Peterborough, England), mouse-Mitf (1:1,000, abcam, Cambridge, Mass., USA), mouse-nestin (1:250, BD Sciences), rabbit-neurofilament-200 (1:1,000, Sigma-Aldrich), rabbit-Otx2 (1:100, abcam), rabbit-Pax2 (1:250, abcam), mouse-Pax6 (1:2, DSHB), mouse-peripherin2 (1:500, GenScript, Piscataway, N.J., USA), rabbit-Rax (1:250, abcam), rabbit-recoverin (1:1,000, Chemicon), retinal pigment epithelium 65 (RPE65, 1:100, Chemicon), rabbit-rhodopsin (1:500, Sigma-Aldrich), mouse-rhodopsin (1:500, Ret-P1, Lab Vision, Fremont, Calif., USA), mouse-rhodopsin (1:2,000, Ret-P1, Sigma-Aldrich), mouse-rom1 (1:50, ABR-Affinity Bioreagents, Golden, Colo., USA), rabbit-PDE6 beta (1:100, abcam), rabbit-phosducin (1:500, Santa Cruz Biotechnology), mouse-PKC-alpha (1:500, Sigma-Aldrich), mouse-Prox1 (1:2,000, Chemicon), mouse-Sox2 (1:250, R&D Systems), rabbit-synaptophysin (1:2,000, Santa Cruz Biotechnology), and rabbit-ZO-1 (1:100, Zymed-Invitrogen).
The cells cultured on the slides in each step were washed three times for 5 min with PBS and incubated at room temperature for 2 hrs with species-specific secondary antibody conjugated with Cy3 (1:800, Jackson Immunoresearch Laboratory) or Alexa488 (1:500, Invitrogen). A standard material suitable for the primary and the secondary antibody was used to examine non-specific staining or interaction between the antibodies. Afterwards, the cells were washed three times for 5 min with PBS, counterstained with DAPI (4,6-diamidino-2 phenylindole) and mounted in Vectashield (Vector Laboratories), followed by visualization under an epifluorescence microscope (Nikon Eclipse, E800, Tokyo, Japan) and a confocal microscope (Leica, Leica Microsystems Inc, Bannockburn, Ill., USA or Zeiss LSM510, Carl Zeiss, Inc, Thornwood, N.Y., USA).
500 cells were counted from 20 microscopic fields randomly selected at 200 magnification and evaluated for positive responses to each antibody. Positive responses to antibodies were determined after at least three evaluations. […] All data were represented as mean±standard error of the mean (S.E.M) with a statistical significance of p<0.05.

For the molecule `O=C1Nc2cc(Br)ccc2/C1=C1/Nc2ccccc2/C1=N\O` [BIO, 6-bromoindirubin-3′-oxime, reference compound], under “2 uM instead of Wnt3a”, the “Positive rate of Crx” value is 65.8(±1.0) %, the “Positive rate of Ki67” value is recorded as 17.2(±0.6) %, the “Positive rate of Pax6” value was 92.8(±1.0) % and the “Positive rate of Rom” value is on record as 60.3(±0.9) %. In addition, under “2 uM instead of Wnt3a”, the “Positive rate of b-opsin” value is recorded as 77.5(±1.8) %, the “Positive rate of peripherin2” value is 33.9(±0.1) %, the “Positive rate of recoverin” value is 77.1(±0.8) % and the “Positive rate of rhodopsin” value is listed as 71.5(±1.2) %.

In the case of `[Cl-].[Li+]` [LiCl, reference compound], where the note is “2.5 mM instead of Wnt3a”, the “Positive rate of recoverin” value is recorded as 64.1(±2.9) % and the “Positive rate of rhodopsin” value is reported as 56.2(±1.7) %. For the same molecule, where the note is “5 mM instead of Wnt3a”, the “Positive rate of Crx” value is 5.0(±1.7) %, the “Positive rate of Ki67” value is listed as 33.3(±2.2) %, the “Positive rate of peripherin2” value is 1.5(±0.9) % and the “Positive rate of recoverin” value is 78.9(±4.4) %. Also, for the setting “5 mM instead of Wnt3a”, the “Positive rate of rhodopsin” value is 68.5(±2.2) %.

On to `c1ccc2c(Oc3nc(Nc4ccc(N5CCOCC5)cc4)c4ncn(C5CCCCC5)c4n3)cccc2c1` [purmorphamine, reference compound], for which, where the note is “1 uM instead of Shh”, the “Positive rate of Crx” value is on record as 71.6(±0.8) %, the “Positive rate of Ki67” value is listed as 24.3(±0.5) %, the “Positive rate of peripherin2” value is recorded as 41.5(±1.2) % and the “Positive rate of recoverin” value is given as 76.5(±0.9) %. Further, where the note is “1 uM instead of Shh”, the “Positive rate of rhodopsin” value is 73.5(±1.2) %.

Turning to `O=C1NC(=O)C(c2ccccc2[N+](=O)[O-])=C1Nc1ccc(O)c(Cl)c1` [SB415286, reference compound], where the note is “30 uM instead of Wnt3a”, the “Positive rate of Crx” value is 53.7(±2.7) %, the “Positive rate of Ki67” value is listed as 13.3(±1.2) %, the “Positive rate of Pax6” value was 89.1(±0.6) % and the “Positive rate of Rom” value is reported as 59.5(±0.7) %. Besides, for the setting “30 uM instead of Wnt3a”, the “Positive rate of b-opsin” value is 53.7(±2.7) %, the “Positive rate of peripherin2” value is recorded as 9.1(±0.6) %, the “Positive rate of recoverin” value is 70.0(±0.6) % and the “Positive rate of rhodopsin” value is reported as 69.3(±0.5) %.

Regarding “Norrin: recombinant Norrin (R&D Systems), activator of the Wnt pathway, binds to Frizzled4 receptor”, under “50 ng/ml instead of Wnt3a”, the “Positive rate of Crx” value is on record as 39.3(±0.8) %, the “Positive rate of Ki67” value is 42.2(±6.8) %, the “Positive rate of Rom” value was 69.5(±2.7) % and the “Positive rate of b-opsin” value is recorded as 71.1(±0.6) %. Moreover, for the setting “50 ng/ml instead of Wnt3a”, the “Positive rate of peripherin2” value is 24.9(±4.5) %, the “Positive rate of recoverin” value is 85.0(±7.2) % and the “Positive rate of rhodopsin” value was 82.9(±7.1) %.

B1: Wnt5A: recombinant Wnt5A (R&D Systems), Wnt signaling pathway activator used instead of Wnt3a (protein, UniProt P41221 62-380, looked up)
Protein Wnt-5a: IIGAQPLCSQLAGLSQGQKKLCHLYQDHMQYIGEGAKTGIKECQYQFRHRRWNCSTVDNTSVFGRVMQIGSRETAFTYAVSAAGVVNAMSRACREGELSTCGCSRAARPKDLPRDWLWGGCGDNIDYGYRFAKEFVDARERERIHAKGSYESARILMNLHNNEAGRRTVYNLADVACKCHGVSGSCSLKTCWLQLADFRKVGDALKEKYDSAAAMRLNSRGKLVQVNSRFNSPTTQDLVYIDPSPDYCVRNESTGSLGTQGRLCNKTSEGMDGCELMCCGRGYDQFKTVQTERCHCKFHWCCYVKCKKCTEIVDQFVCK
With B1, for the setting “50 ng/ml instead of Wnt3a”, the “Positive rate of Crx” value is recorded as 67.3(±1.9) %, the “Positive rate of Ki67” value was 41.3(±3.9) %, the “Positive rate of Rom” value is given as 58.8(±2.7) % and the “Positive rate of b-opsin” value was 55.0(±4.4) %. Besides, under “50 ng/ml instead of Wnt3a”, the “Positive rate of peripherin2” value is reported as 20.7(±0.8) %, the “Positive rate of recoverin” value is 61.0(±3.2) % and the “Positive rate of rhodopsin” value is on record as 59.5(±2.0) %. For the same molecule, where the note is “100 ng/ml instead of Wnt3a”, the “Positive rate of peripherin2” value is reported as 14.2(±2.8) %, the “Positive rate of recoverin” value was 61.6(±2.5) % and the “Positive rate of rhodopsin” value was 56.1(±1.8) %.

B2: Wnt11: recombinant Wnt11 (R&D Systems), Wnt signaling pathway activator used instead of Wnt3a (protein, UniProt O96014 25-354, looked up)
Protein Wnt-11: IKWLALSKTPSALALNQTQHCKQLEGLVSAQVQLCRSNLELMHTVVHAAREVMKACRRAFADMRWNCSSIELAPNYLLDLERGTRESAFVYALSAAAISHAIARACTSGDLPGCSCGPVPGEPPGPGNRWGGCADNLSYGLLMGAKFSDAPMKVKKTGSQANKLMRLHNSEVGRQALRASLEMKCKCHGVSGSCSIRTCWKGLQELQDVAADLKTRYLSATKVVHRPMGTRKHLVPKDLDIRPVKDSELVYLQSSPDFCMKNEKVGSHGTQDRQCNKTSNGSDSCDLMCCGRGYNPYTDRVVERCHCKYHWCCYVTCRRCERTVERYVCK
B2: where the note is “50 ng/ml instead of Wnt3a”, the “Positive rate of Crx” value is 65.9(±5.8) %, the “Positive rate of Ki67” value is on record as 40.1(±5.2) %, the “Positive rate of Rom” value is reported as 50.2(±7.4) % and the “Positive rate of b-opsin” value was 30.6(±6.2) %. For the setting “50 ng/ml instead of Wnt3a”, the “Positive rate of peripherin2” value was 0.5(±0.3) %, the “Positive rate of recoverin” value is 65.3(±2.7) % and the “Positive rate of rhodopsin” value is on record as 51.8(±7.7) %. For the setting “100 ng/ml instead of Wnt3a”, the “Positive rate of peripherin2” value was 10.7(±2.9) %, the “Positive rate of recoverin” value was 61.8(±4.1) % and the “Positive rate of rhodopsin” value is 59.1(±5.4) %.

B3: Wnt1: recombinant Wnt1 (PeproTech), Wnt signaling pathway activator used instead of Wnt3a (protein, UniProt P04628 28-370, looked up)
Proto-oncogene Wnt-1: ANSSGRWWGIVNVASSTNLLTDSKSLQLVLEPSLQLLSRKQRRLIRQNPGILHSVSGGLQSAVRECKWQFRNRRWNCPTAPGPHLFGKIVNRGCRETAFIFAITSAGVTHSVARSCSEGSIESCTCDYRRRGPGGPDWHWGGCSDNIDFGRLFGREFVDSGEKGRDLRFLMNLHNNEAGRTTVFSEMRQECKCHGMSGSCTVRTCWMRLPTLRAVGDVLRDRFDGASRVLYGNRGSNRASRAELLRLEPEDPAHKPPSPHDLVYFEKSPNFCTYSGRLGTAGTAGRACNSSSPALDGCELLCCGRGHRTRTQRVTERCNCTFHWCCHVSCRNCTHTRVLHECL
Consider B3, for which, under “50 ng/ml instead of Wnt3a”, the “Positive rate of Crx” value is recorded as 60.3(±1.3) %, the “Positive rate of Ki67” value is on record as 23.8(±1.2) %, the “Positive rate of Rom” value is 55.9(±2.9) % and the “Positive rate of b-opsin” value is recorded as 61.6(±6.8) %. In addition, under “50 ng/ml instead of Wnt3a”, the “Positive rate of peripherin2” value is 3.8(±2.0) %, the “Positive rate of recoverin” value is reported as 70.9(±1.8) % and the “Positive rate of rhodopsin” value is 66.2(±5.4) %.
